≈ marks a conversion by molar mass, not a printed value.
Legend:
[1] = Minimum inhibitory concentration against Haemophilus influenzae ATCC 51907; format: functional
Streptococcus pneumoniae = test: Minimum inhibitory concentration against penicillin susceptible Streptococcus pneumoniae AP671401; format: functional
[2] = molecular target: T1, Amine oxidase [flavin-containing] A (Homo sapiens, UniProt P21397); test: Binding affinity for human liver monoamine oxidase A
T1 sequence (P21397 whole entry): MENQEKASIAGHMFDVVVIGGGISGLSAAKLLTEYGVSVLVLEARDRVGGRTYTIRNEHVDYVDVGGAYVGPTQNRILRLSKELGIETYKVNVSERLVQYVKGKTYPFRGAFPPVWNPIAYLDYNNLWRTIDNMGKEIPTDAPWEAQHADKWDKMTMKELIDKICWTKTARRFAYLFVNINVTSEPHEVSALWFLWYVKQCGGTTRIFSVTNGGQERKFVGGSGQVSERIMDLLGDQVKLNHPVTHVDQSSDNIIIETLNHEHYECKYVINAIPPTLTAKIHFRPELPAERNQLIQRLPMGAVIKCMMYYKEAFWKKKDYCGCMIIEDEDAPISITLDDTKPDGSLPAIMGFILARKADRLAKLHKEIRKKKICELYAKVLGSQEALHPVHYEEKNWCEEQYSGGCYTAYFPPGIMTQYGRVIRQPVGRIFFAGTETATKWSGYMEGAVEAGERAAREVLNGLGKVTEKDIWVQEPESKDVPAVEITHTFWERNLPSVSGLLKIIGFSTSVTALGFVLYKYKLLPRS

Staphylococcus aureus = test: Minimum inhibitory concentration against methicillin susceptible Staphylococcus aureus AP601055; format: functional

| Structure (SMILES) | MIC [1] | MIC (Streptococcus pneumoniae) | Ki [2] | MIC (Staphylococcus aureus) |
| --- | --- | --- | --- | --- |
| CCc1cn(C[C@H]2CN(c3ccc(C4=CCS(=O)(=O)CC4)c(F)c3)C(=O)O2)nn1 | 8 µg/mL (≈ 19 µM) | 2 µg/mL (≈ 4.76 µM) | > 200 µM | 4 µg/mL (≈ 9.51 µM) |
| O=C1O[C@@H](Cn2cc(C=C(Br)Br)nn2)CN1c1ccc(C2=CCS(=O)(=O)CC2)c(F)c1 | > 64 µg/mL | 4 µg/mL (≈ 6.94 µM) | > 100 µM | > 64 µg/mL |
| C#Cc1cn(C[C@H]2CN(c3ccc(C4=CCS(=O)(=O)CC4)c(F)c3)C(=O)O2)nn1 | 2 µg/mL (≈ 4.8 µM) | 0.5 µg/mL (≈ 1.2 µM) | > 200 µM | 2 µg/mL (≈ 4.8 µM) |
| O=C1O[C@@H](Cn2cc(F)nn2)CN1c1ccc(C2=CCS(=O)(=O)CC2)c(F)c1 | 2 µg/mL (≈ 4.87 µM) | 0.25 µg/mL (≈ 0.609 µM) | 0.5 µM | 1 µg/mL (≈ 2.44 µM) |
| O=C1O[C@@H](Cn2cc(Br)nn2)CN1c1ccc(C2=CCS(=O)(=O)CC2)c(F)c1 | 2 µg/mL (≈ 4.24 µM) | 0.5 µg/mL (≈ 1.06 µM) | 16 µM | 2 µg/mL (≈ 4.24 µM) |
| O=Cc1cn(C[C@H]2CN(c3ccc(C4=CCS(=O)(=O)CC4)c(F)c3)C(=O)O2)nn1 | 16 µg/mL (≈ 38.1 µM) | 2 µg/mL (≈ 4.76 µM) | 3.2 µM | 16 µg/mL (≈ 38.1 µM) |
| Cc1cn(C[C@H]2CN(c3ccc(C4=CCS(=O)(=O)CC4)c(F)c3)C(=O)O2)nn1 | 2 µg/mL (≈ 4.92 µM) | 0.5 µg/mL (≈ 1.23 µM) | 25 µM | 1 µg/mL (≈ 2.46 µM) |
| O=C1O[C@@H](Cn2cc(Cl)nn2)CN1c1ccc(C2=CCS(=O)(=O)CC2)c(F)c1 | 1 µg/mL (≈ 2.34 µM) | 0.25 µg/mL (≈ 0.586 µM) | 3 µM | 1 µg/mL (≈ 2.34 µM) |
| O=C1O[C@@H](Cn2nncc2F)CN1c1ccc(C2=CCS(=O)(=O)CC2)c(F)c1 | 64 µg/mL (≈ 156 µM) | 8 µg/mL (≈ 19.5 µM) | 1.6 µM | 32 µg/mL (≈ 78 µM) |
| CC(=O)NC[C@H]1CN(c2ccc(C3=CCS(=O)(=O)CC3)c(F)c2)C(=O)O1 | 1 µg/mL (≈ 2.61 µM) | 0.25 µg/mL (≈ 0.654 µM) | 5.9 µM | 1 µg/mL (≈ 2.61 µM) |
| O=C1O[C@@H](Cn2cc(/C=C/Br)nn2)CN1c1ccc(C2=CCS(=O)(=O)CC2)c(F)c1 | 8 µg/mL (≈ 16.1 µM) | 2 µg/mL (≈ 4.02 µM) | > 200 µM | 8 µg/mL (≈ 16.1 µM) |
| O=C1O[C@@H](Cn2ccnn2)CN1c1ccc(C2=CCS(=O)(=O)CC2)c(F)c1 | 2 µg/mL (≈ 5.1 µM) | 0.5 µg/mL (≈ 1.27 µM) | 3.4 µM | 1 µg/mL (≈ 2.55 µM) |
| O=C1O[C@@H](Cn2cc(COP(=O)(Oc3ccccc3)Oc3ccccc3)nn2)CN1c1ccc(C2=CCS(=O)(=O)CC2)c(F)c1 | 64 µg/mL (≈ 97.8 µM) | 4 µg/mL (≈ 6.11 µM) | > 100 µM | 32 µg/mL (≈ 48.9 µM) |
| N#CCc1cn(C[C@H]2CN(c3ccc(C4=CCS(=O)(=O)CC4)c(F)c3)C(=O)O2)nn1 | 2 µg/mL (≈ 4.64 µM) | 1 µg/mL (≈ 2.32 µM) | > 200 µM | 16 µg/mL (≈ 37.1 µM) |
| CC(C)(C)OC(=O)c1cn(C[C@H]2CN(c3ccc(C4=CCS(=O)(=O)CC4)c(F)c3)C(=O)O2)nn1 | > 64 µg/mL | > 64 µg/mL | 3.5 µM | > 64 µg/mL |
| CC(C)c1cn(C[C@H]2CN(c3ccc(C4=CCS(=O)(=O)CC4)c(F)c3)C(=O)O2)nn1 | 32 µg/mL (≈ 73.6 µM) | 4 µg/mL (≈ 9.21 µM) | 102 µM | 8 µg/mL (≈ 18.4 µM) |
| Cc1cnnn1C[C@H]1CN(c2ccc(C3=CCS(=O)(=O)CC3)c(F)c2)C(=O)O1 | > 64 µg/mL | 64 µg/mL (≈ 157 µM) | 4.5 µM | > 64 µg/mL |
| C[Si](C)(C)C#Cc1cn(C[C@H]2CN(c3ccc(C4=CCS(=O)(=O)CC4)c(F)c3)C(=O)O2)nn1 | > 64 µg/mL | 1 µg/mL (≈ 2.05 µM) | > 200 µM | > 64 µg/mL |
| O=C1O[C@@H](Cn2cc(CO)nn2)CN1c1ccc(C2=CCS(=O)(=O)CC2)c(F)c1 | 4 µg/mL (≈ 9.47 µM) | 2 µg/mL (≈ 4.73 µM) | 47 µM | 32 µg/mL (≈ 75.8 µM) |

— ChEMBL document CHEMBL1141178, “Identification of 4-substituted 1,2,3-triazoles as novel oxazolidinone antibacterial agents with reduced activity against monoamine oxidase A” (J Med Chem, 2005)
